What was measured:
MV4-11 cells [1] = experiment: Cell cycle distribution by flow cytometry; type: cell-based; details: 10 μM curcumin, 48 hour
Description: (§1) Cell Cycle and Apoptosis Analysis: MV4-11, ML-1, HL-60 and K562 leukemia cell lines were cultured in RPMI medium (VWR International, Inc., West Chester, Pa.) supplemented with 10% fetal bovine serum (Invitrogen, Carlsbad, Calif.) and 1% (v/v) penicillin/streptomycin (Invitrogen Life Technologies; Carlsbad, Calif.) antibiotic solution at 37° C. in an incubator under 5% CO2 atmosphere. For the ex-vivo studies, mononuclear cells obtained from bone marrow (BM) of patient with AML were prepared by Ficoll-Hypaque (Nygaard) gradient centrifugation and cultured with serum-free expansion medium (SFEM) (StemCell technologies, Vancouver, BC) supplemented with GM-CSF (50 ng/ml), IL-3 (20 ng/ml), IL-6 (20 ng/ml) and SCF ([…]). […] The cell cycle and apoptosis of MV4-11 cells was analyzed on a BD FACS Calibur (Beckman Coulter, Fullerton, Calif.) according to the standard protocol provided by the manufacturer.

[2] = rats, orally administered; cited from earlier work
DNMT3a [3] = experiment: DNMT3a mRNA in MV4-11 engrafted tumor tissues; type: in vivo; details: MV4-11 engrafted mice, curcumin i.p. 100 mg/kg
Description: (§2) Quantitative RT-PCR was used to quantify the mRNA levels of DNMT1, DNMT3a, DNMT3b, p15INK4B and p21. Total RNA was extracted with Trizol reagent (Invitrogen, Carlsbad, Calif.) and reverse transcribed by reverse transcriptase (Invitrogen). Quantitative real-time PCR reactions were performed in triplicate using Taqman gene expression assay (Applied Biosystems) with an ABI prism 7700 detector (Applied Biosystems). The target gene values were normalized to the values of internal control GAPDH or 18 S, and expressed as relative percent change (100×2^(˜ΔΔCt)) over non-treated samples.
Female athymic nu/nu mice (4-6 weeks old, 18-22 g) were obtained from Charles River Laboratory (Wilmington, Mass.) and acclimated for 1 week in a pathogen-free enclosure before start of study. Animals were given sterile rodent chow and water ad libitum and were housed in sterile filter-top cages with 12 hour light/dark cycles. All experiments were conducted in accordance with the guidelines of the Association for Assessment and Accreditation of Laboratory Animal Care International. […] Tumor volume was calculated by using the equation V=2×A×B^2/3, where A is the longer (horizontal as width) diameter (mm) and B is the shorter (perpendicular as depth) diameter (mm) and expressed in cubic millimeter. […]

[4] = test system: MV4-11 leukemia cell-engrafted animal model; experiment: Xenograft animal model, anti-tumor growth activity; type: in vivo, athymic nu/nu mice
Description: Female athymic nu/nu mice (4-6 weeks old, 18-22 g) were obtained from Charles River Laboratory (Wilmington, Mass.) and acclimated for 1 week in a pathogen-free enclosure before start of study. Animals were given sterile rodent chow and water ad libitum and were housed in sterile filter-top cages with 12 hour light/dark cycles. All experiments were conducted in accordance with the guidelines of the Association for Assessment and Accreditation of Laboratory Animal Care International. MV4-11 cells (5×10^6 cells per mouse) were suspended with 50% Matrigel (Becton Dickinson) and subcutaneously implanted into both right and left flanks of the athymic nu/nu mice. When tumors were grown between 100 to 200 mm^3, treatments were initiated. Mice were randomly assigned into two cohorts for the anti-tumor growth activity studies, with 6 mice per group. […] Tumor volume was calculated by using the equation V=2×A×B^2/3, where A is the longer (horizontal as width) diameter (mm) and B is the shorter (perpendicular as depth) diameter (mm) and expressed in cubic millimeter. After 4 weeks, mice were euthanized and tumor tissues were excised, snapfrozen in liquid nitrogen, weighed and stored in a −80° C. freezer until analysis.

DNMT3b [5] = experiment: Western blot of DNMT3b protein in MV4-11 cells; type: cell-based
Description: (§3) Cell Cycle and Apoptosis Analysis: MV4-11, ML-1, HL-60 and K562 leukemia cell lines were cultured in RPMI medium (VWR International, Inc., West Chester, Pa.) supplemented with 10% fetal bovine serum (Invitrogen, Carlsbad, Calif.) and 1% (v/v) penicillin/streptomycin (Invitrogen Life Technologies; Carlsbad, Calif.) antibiotic solution at 37° C. in an incubator under 5% CO2 atmosphere. […] The cell cycle and apoptosis of MV4-11 cells was analyzed on a BD FACS Calibur (Beckman Coulter, Fullerton, Calif.) according to the standard protocol provided by the manufacturer.
(§4) Cells or tumor tissues were homogenized and lysed in ice-cold lysis buffer (20 mM, pH 7.0 HEPES, 150 mM NaCl, 0.1% NP40 supplemented with 1 mM β-glycerophosphate, 1 mM Na3VO4, 1 mM NaF, 1 mM benzamide and 1 mM phenylmethylsulfonyl fluoride) with protease inhibitors (Protease Inhibitor cocktail Set III, Calbiochem-Novabiochem Corporation, La Jolla, Calif.), and incubated on ice for 20 mM. […] The immunoblotted proteins were detected by ECL reagent (GE Healthcare Bio-Sciences Corp., Piscataway, N.J.).

MV4-11 cells [6] = experiment: Cell viability / anti-proliferation; type: cell-based
DNMT3b [7] = experiment: Quantitative RT-PCR of DNMT3b mRNA in MV4-11 cells; type: cell-based; details: 10 μM
Description: as §1
as §2, with “Total RNA was extracted with Trizol reagent (Invitrogen, Carlsbad, Calif.) and reverse transcribed by reverse transcriptase (Invitrogen).” left out

DNMT1 = experiment: Western blot of DNMT1 protein in leukemia cells; type: cell-based
Description: as §3, §4

in vivo = details: CD2F1, mouse, in vivo
From the text: Extracts of bio-matrices were subjected to HPLC mass spectrometric analysis.

DNMT3a [8] = experiment: Quantitative RT-PCR of DNMT3a mRNA in MV4-11 cells; type: cell-based; details: 10 μM
Description: as §1
as §2, with “Total RNA was extracted with Trizol reagent (Invitrogen, Carlsbad, Calif.) and reverse transcribed by reverse transcriptase (Invitrogen).” left out

[9] = day 29 after the treatment, i.p. 100 mg/kg

For `COc1cc(/C=C/C(=O)CC(=O)/C=C/c2ccc(O)c(OC)c2)ccc1O` [curcumin], the “cell population in G0/G1 phase” value (MV4-11 cells [1]) was 52.0%, the “cell population in G2/M phase” value (MV4-11 cells [1]) was 8.0% and the “cell population in S phase” value (MV4-11 cells [1]) was 16.1%. For the same compound, the “cell population in SubG1 phase” value (MV4-11 cells [1]) was 24.9%, the “elimination half-life (T1/2)” value [2] was 1.7 ± 0.5 h and the “mRNA level of DNMT3a in engrafted tissues” value (DNMT3a [3]) was “significantly decreases”. For the same compound, the tumor size decrease ([4]; MV4-11 engrafted nude mice (summary)) was “about 65%”, the “reduction of tumor size” value [4, 9] was 3854 mm^3 and the “reduction of tumor weight” value [4, 9] was 65%. The body weight ([4]; i.p. 100 mg/kg five days a week, 4 weeks) was “No significant weight loss”, the “decrease of tumor growth rate compared with control” value ([4]; i.p. 100 mg/kg, linear mixed effect model) was 142.5 mm^3 per day and the “life span of MV4-11 engrafted nude mice” value ([4]; pilot study) was 6 weeks. For the same compound, the average tumor weight ([4]; treatment group) was 3.6 g, the “DNMT3b protein level reduction” value (DNMT3b [5]) was 50% and the IC50 (MV4-11 cells [6]; Homo sapiens, MV4-11) was 10 to 15 µM. For the same compound, the “cell viability decreased to” value (MV4-11 cells [6]; MV4-11 cells (FIG. 13B)) was 60-70%, the “DNMT3b mRNA level, % of the control” value (DNMT3b [7]; 48 h) was 40% and the “DNMT3b mRNA level, % of the control” value (DNMT3b [7]; 72 h) was 10%. For the same compound, the “DNMT1 protein level decrease” value (DNMT1; ML-1 cells) was 50%, the DNMT1 protein level (DNMT1; MV4-11 cells, 10 μM) was “completely depleted” and the concentration at 10 min (in vivo) was 1620 ng/mL. The concentration at 20 min (in vivo) was 1620 ng/mL, the concentration at 30 min (in vivo) was 2450 ng/mL and the concentration at 45 min (in vivo) was 661 ng/mL. It also gave a concentration at 60 min (in vivo) of 448 ng/mL, a concentration at 90 min (in vivo) of 135 ng/mL and a concentration at 120 min (in vivo) of 231 ng/mL. For the same compound, the concentration at 240 min (in vivo) was 169 ng/mL, the concentration at 480 min (in vivo) was 58.3 ng/mL and the “DNMT3a mRNA level, % of the control” value (DNMT3a [8]; 48 h) was 50%. The “DNMT3a mRNA level, % of the control” value (DNMT3a [8]; 72 h) was 20%.

From patent US20130143969A1 (THE OHIO STATE UNIVERSITY, priority 2010, published 2013)
